From patent US6989435B2, “Compounds and methods to inhibit or augment an inflammatory response” (Cambridge University Technical Services Ltd., priority 1997, dated 2006)

Columns and labels:
[1] = tested on: chemokine-induced migration of peripheral blood monocytes; assay: Chemokine-induced migration of freshly prepared peripheral blood monocytes, each of the four chemokines; type: cell-based, human; conditions: 100 μM; peripheral blood monocytes from 3 donors
Procedure: (§1) Agents may also be screened in a chemotactic assay which employs human neutrophils, eosinophils, mast cells, basophils, platelets, lymphocytes or monocytes. For monocytes, 9 mls of fresh blood are transferred to a tube containing 1 ml of 3.8% sodium citrate, and left at room temperature for 15 minutes. Five mls of this anti-coagulated blood are carefully layered over 3.5 ml Polymorphprep® (Nycomed Pharma, Oslo), and centrifuged at 500 g for 35 minutes per the manufacturer's instructions. The top band at the sample/medium interface contains monocytes. The monocytes are carefully removed with a glass pipette, and reconstituted to the original volume (5 ml). The cells are washed with PBS plus 10% fetal calf serum, and centrifuged at 400 g for 10 minutes. The washing step is repeated three times before the cells are counted. Cells are resuspended at 1×10^7 cells/ml in RPMI-1640+10% fetal calf serum (FCS). The monocytes are cultured for two days at 37° C. in a humidified atmosphere of 5% CO2.
(§2) On day 2, the cells are counted, spun down, and reconstituted to 1×10^7 cells/ml in Gey's balanced salt solution+1 mg/ml bovine serum albumin (BSA). […]

[2] = tested on: TGFβ1 induced human monocyte migration; assay: Human monocyte migration, TGFβ1 induced; type: cell-based
Procedure: as §1, §2

[3] = tested on: MCP-1 induced THP-1 migration; assay: Trans-well THP-1 migration assay, MCP-1 as chemoattractant; type: cell-based, human; conditions: concentrations above 50 μM
Procedure: FIG. 1 is a schematic of the trans-well migration assay. In most experiments, the peptide (wavy line) is added to the upper well with about 50,000 cells (O). The upper and lower wells are separated by a 5 μm or 8 μm pore size PVP-free membrane (- - - -). Chemokine (●) is added to the lower well. After 4 hours, the number of cells that have migrated through the membrane are measured (◯ in lower well).
To determine whether an agent inhibits a chemokine-induced activity, such as macrophage recruitment, varying amounts of the agent are mixed with cells in the presence of a known chemoattractant. For example, a range of known concentrations of an agent, e.g., a chemokine peptide, is incubated with a defined number (e.g., 10^4-10^6) of human THP-1 monocyte cells in individual wells of the top compartment of a trans-well plate. Chemokine (such as MCP-1, MIP1α, IL8 or SDF-1α), at a concentration known to cause significant migration of THP-1 cells in the trans-well migration assay, is placed in the lower compartment (FIG. 1). Cells are then incubated at 37° C. for a period sufficient to allow migration, e.g., 4 hours. After incubation, the cells are gently removed from the top of the filter with a pipette, 20 μl of 20 mM EDTA in simple PBS is added into each top well, and incubated for 20 minutes at 4° C. The filter is carefully flushed with media using a gentle flow, and removed. A standard curve consisting of a two-fold dilution series of THP-1 cells (in 29 μl) is prepared to accurately quantify the number of cells that have migrated. Migrated cells are stained with 3 μl of MTT stock dye solution which is added directly into each well (5 mg/ml in RPMI-1640 without phenol red, Sigma Chemical Co.) and incubated at 37° C. for 4 hours. The media is carefully aspirated from each well, and the converted dye is solubilized by 20 μl of DMSO. Absorbance of converted dye is measured at a wavelength of 595 nm using an ELISA plate reader. The number of migrated cells in each well is then determined by interpolation of the standard curve (see also Imai et al., J. Biol. Chem., 272, 15036 (1997)).
Any method suitable for counting cells can be used, for example, counting with a hemocytometer, incubation of the cells with MTT (see above), or FACS analysis. A negative control assay is also performed, using TGF-β or another non-chemokine chemoattractant (e.g., IL1β or TNFα). To assess whether the agent is cytotoxic, the same concentrations of agent are incubated with THP-1 cells. Agents which 1) are not cytotoxic at levels which inhibit migration, 2) are ineffective at inhibiting the negative control-induced migration, and 3) reduce or inhibit chemokine-induced THP-1 migration, are agents which fall within the scope of the invention.
For this assay, THP-1 cells were maintained at a density of 4×10^5 cells per ml in RPMI-1640 supplemented with 10% fetal calf serum+20 μM 2-mercaptoethanol. Chemotaxis was induced in a 96-well disposable chemotaxis chamber fitted with a […] polycarbonate filter (PVP free, ChemoTX, Neuroprobe Inc., Cabin John). Twenty-nine μl of chemoattractant (recombinant human chemokine; 50 ng/ml, i.e., 5.9 nM) or control (100 ng/ml TGFβ) was added to the lower compartment of each well. The framed filter was aligned with the holes in the corner of the filter frame and placed over the wells. Five×10^4 THP-1 cells in 25 μl of RPMI-1640 culture media were added to the upper compartment. Peptides were dissolved in Milli Q water and then serially diluted in culture medium. In most cases, the serially diluted peptides were added to the upper compartment of the chemotaxis chamber. The chamber was incubated at 37° C. in a humidified atmosphere of 5% CO2 for 4 hours.
After incubation, the cells were gently removed from the top of the filter with a pipette, 20 μl of 20 mM EDTA in PBS was added into each top well, and the mixture was incubated for 20 minutes at 4° C. The filter was then carefully flushed with media using a gentle flow, and removed. […]

Sequence: EICADPKQKWVQ [Peptide 3]
- inhibition of monocyte migration induced with each of the four chemokines [1]: > 95%
- effect on TGF-beta induced monocyte migration ([2]; 100 μM): did not affect
- Extent of inhibition of human monocyte migration at 100 μM, TGFβ1 ([2]; Table 4(c), 100 μM peptide, n.s. = no statistically significant inhibition): n.s.
- effect on MCP-1 induced THP-1 migration at concentrations above 50 μM [3]: abolished all of the MCP-1 induced THP-1 migration
